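Test compounds were applied to cells in 96-well plates for 48 hours at 5 doses. At the GI50, growth is halved. TGI marks complete inhibition of growth.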 Where only a bound is given, the exact number is not on record here.

The text below walks through data of PubChem BioAssay (NCI).

Test systems include HCC-2998 colon; HCT-116 colon; MALME-3M melanoma; MOLT-4 leukemia; NCI-H522 lung; SF-268 CNS; SF-539 CNS; SK-MEL-2 melanoma; U251 CNS; UO-31 renal.
What all share (experiment): NCI anticancer screen, dose series, 48 h

On to `CCOC(=O)C1(Br)C(c2ccccc2)NC(=O)NC1(C)Br` (stereo unspecified), for which the TGI in the test on HCC-2998 colon is over 100 µM; in the test on HCT-116 colon, over 100 µM; in the test on MALME-3M melanoma it was over 100 µM; in the test on MOLT-4 leukemia it was over 73.7 µM; in the test on NCI-H522 lung, over 53.2 µM; in the test with SF-268 CNS, over 100 µM. The TGI in the test on SF-539 CNS was over 100 µM; in the test on SK-MEL-2 melanoma, over 100 µM; in the test with U251 CNS, 49.4 µM; in the test on UO-31 renal, over 100 µM. In the test on SF-539 CNS, the GI50 is over 100 µM.
Regarding `CCc1n(Cc2ccc3ccccc3n2)cc[n+]1Cc1ccc2ccccc2n1`, the GI50 was 0.227 µM with HCC-2998 colon; 1.35 µM in the test with HCT-116 colon; 0.128 µM with MALME-3M melanoma; 0.437 µM with MOLT-4 leukemia; 0.0837 µM in the test on NCI-H522 lung; 0.453 µM in the test on SF-268 CNS. Besides, the GI50 is 0.681 µM in the test with SF-539 CNS, 0.217 µM in the test on SK-MEL-2 melanoma, 0.186 µM with U251 CNS and 21.2 µM in the test with UO-31 renal. Also, the TGI with HCC-2998 colon was found to be 14.4 µM; in the test on HCT-116 colon, 29.7 µM; in the test with MALME-3M melanoma it was 0.973 µM; in the test on MOLT-4 leukemia, 10.1 µM; with NCI-H522 lung, 1.49 µM; in the test with SF-268 CNS, 14.2 µM. In addition, the TGI in the test with SF-539 CNS is 15.8 µM; in the test with SK-MEL-2 melanoma, 2.11 µM; in the test on U251 CNS it was 13.5 µM; with UO-31 renal it was over 100 µM.
In the case of `COc1ccccc1/C=C/[N+](=O)[O-]`, the GI50 is 1.76 µM in the test with HCC-2998 colon; 1.51 µM with HCT-116 colon; 2.82 µM in the test on MALME-3M melanoma; 2.54 µM with MOLT-4 leukemia; 1.08 µM with NCI-H522 lung; 2.39 µM in the test with SF-268 CNS. The GI50 in the test with SF-539 CNS was 2.16 µM; in the test on SK-MEL-2 melanoma, 5.4 µM; in the test with U251 CNS, 2.07 µM; with UO-31 renal it was 1.45 µM. Moreover, the TGI turned out to be 3.24 µM with HCC-2998 colon; 2.9 µM in the test on HCT-116 colon; 9.11 µM with MALME-3M melanoma; 6.45 µM in the test on MOLT-4 leukemia; 2.47 µM in the test with NCI-H522 lung; 5.12 µM with SF-268 CNS. For the same molecule, the TGI was 4.32 µM in the test with SF-539 CNS, 17.2 µM in the test on SK-MEL-2 melanoma, 5.72 µM with U251 CNS and 2.8 µM with UO-31 renal.
For the molecule `O=C(c1ccccc1)C1CCCCN1C(=O)c1ccccc1` (stereo unspecified), the TGI in the test on HCC-2998 colon, in the test with HCT-116 colon, in the test on MALME-3M melanoma, in the test on MOLT-4 leukemia, in the test on NCI-H522 lung and in the test on SF-268 CNS was over 100 µM in each case. Further, the TGI in the test with SF-539 CNS, in the test on SK-MEL-2 melanoma, in the test on U251 CNS and with UO-31 renal was over 100 µM each time.
With `CCCNCCCC(NC(C)=O)C(=O)NCc1ccccc1` (stereo unspecified), the TGI in the test with HCC-2998 colon, in the test on HCT-116 colon, in the test with MALME-3M melanoma, in the test on MOLT-4 leukemia, in the test with NCI-H522 lung and in the test with SF-268 CNS was over 100 µM each time. Besides, the TGI in the test on SF-539 CNS, in the test with SK-MEL-2 melanoma, in the test with U251 CNS and in the test on UO-31 renal was over 100 µM throughout.
Regarding `O=C(O)C1C2CCC(O2)C1C(=O)N1CCCCC1` (stereo unspecified), the TGI with HCC-2998 colon is 11.9 µM; with HCT-116 colon, 22.6 µM; with MALME-3M melanoma it was 23.6 µM; in the test with MOLT-4 leukemia it was 20.6 µM; with NCI-H522 lung it was 17.4 µM; with SF-268 CNS, 28.9 µM. Moreover, the TGI with SF-539 CNS was 23.5 µM; in the test with SK-MEL-2 melanoma, 21.2 µM; with U251 CNS, 17 µM; in the test with UO-31 renal, 46 µM.
For the molecule `COc1cc(/C=C\c2ccccc2)cc(OC)c1OC`, the TGI in the test on HCC-2998 colon is 48.5 µM; with HCT-116 colon, over 100 µM; in the test with MALME-3M melanoma, 19.7 µM; in the test on MOLT-4 leukemia it was 17.2 µM; in the test with NCI-H522 lung, 7.26 µM; in the test with SF-268 CNS, 59.2 µM. Besides, the TGI in the test with SF-539 CNS was 7.47 µM; in the test with SK-MEL-2 melanoma it was 26.2 µM; in the test on U251 CNS it was 29.4 µM; in the test with UO-31 renal, 30 µM.
For `COc1ccc2c(c1)C(=O)c1c-2n(CCCN=[N+]=[N-])c(=O)c2cc(N(C)C)ccc12`, the GI50 was over 100 µM in the test with HCC-2998 colon; 77.3 µM in the test with HCT-116 colon; over 100 µM in the test with MALME-3M melanoma; over 100 µM in the test on MOLT-4 leukemia; 11.2 µM in the test with NCI-H522 lung; 22.3 µM in the test with SF-268 CNS. For the same molecule, the GI50 in the test on SF-539 CNS was 17.6 µM; in the test with SK-MEL-2 melanoma, over 100 µM; with U251 CNS, 19.5 µM; in the test on UO-31 renal, over 100 µM. Moreover, the TGI with HCC-2998 colon was over 100 µM; in the test with HCT-116 colon, over 100 µM; in the test on MALME-3M melanoma, over 100 µM; with MOLT-4 leukemia it was over 100 µM; in the test on NCI-H522 lung, 92.4 µM; in the test on SF-268 CNS, over 100 µM. For the same molecule, the TGI in the test with SF-539 CNS, in the test with SK-MEL-2 melanoma, in the test with U251 CNS and in the test with UO-31 renal was over 100 µM in each case.
Consider `O=Cc1ccccc1OCCOc1cc(OCCOc2ccccc2C=O)c(OCCOc2ccccc2C=O)cc1OCCOc1ccccc1C=O`, for which the TGI in the test on HCC-2998 colon was over 100 µM; in the test on HCT-116 colon, over 71.2 µM; with MALME-3M melanoma it was over 100 µM; in the test with MOLT-4 leukemia, over 100 µM; in the test with NCI-H522 lung it was over 100 µM; in the test with SF-268 CNS, over 100 µM. Besides, the TGI in the test with SF-539 CNS is over 79 µM; in the test with SK-MEL-2 melanoma, over 100 µM; in the test on U251 CNS, over 50.1 µM; in the test on UO-31 renal it was over 100 µM.
As to `O=c1[nH]c(=O)n([C@@H]2C[C@H](CO)[C@H](O)C2)cc1/C=C/Br`, the TGI in the test on HCC-2998 colon, with HCT-116 colon, with MALME-3M melanoma, in the test with MOLT-4 leukemia, with NCI-H522 lung and with SF-268 CNS was over 100 µM each time. Further, the TGI in the test with SF-539 CNS, in the test on SK-MEL-2 melanoma, with U251 CNS and in the test with UO-31 renal was over 100 µM throughout.
For `CCc1cccc(C(C)C)c1NC(=O)C(=O)CC(=O)c1c(C)n([O-])c2ccccc2[n+]1=O`, the TGI in the test on HCC-2998 colon, in the test on HCT-116 colon, in the test on MALME-3M melanoma, in the test with MOLT-4 leukemia, in the test with NCI-H522 lung and in the test with SF-268 CNS was over 100 µM in each case. The TGI in the test on SF-539 CNS, with SK-MEL-2 melanoma, in the test on U251 CNS and with UO-31 renal was over 100 µM in each case.
